The values below come from patent publication US8476251B2, “Skin care compositions comprising substituted diamines” (Conopco, Inc., priority 2010, dated 2013).

The assay deals with Melanoderm tissue equivalent model MEL-300 containing melanocytes obtained from dark skin individuals. In words: Melanoderm tissue equivalent model MEL-300, total melanin content (inhibition of melanogenesis). Format: cell-based. The note with it: 14 days; for inhibition at 10 µM: Melanocyte, 336 h, 10 μM in maintenance medium, total melanin content vs DMSO vehicle control, read-out: Melanoderm (% Reduction at 10 μM); for melanogenesis inhibition (in words): Melanoderm MEL-300, 10 μM. The procedure:
Melanoderm tissue equivalent model MEL-300 (MatTek: Ashland, Mass.) containing melanocytes obtained from dark skin individuals were cultured as per supplier instructions. Components were added to the maintenance medium phase (no topical treatments) at a final concentration of 10 μM for 14 days at which time the experiment was terminated and the tissues assessed for melanin content. Medium and treatments were changed three times per week. DMSO was utilized as the vehicle control and all treatments were performed at least in duplicate.
For quantification of total melanin, each Melanoderm was placed into an individual Eppendorf tube (2 mL) into which 250 μL of Solvable™ tissue solubilizer (Packard Bioscience Co., Cat# 6NE9100) was added. Each tube was vortexed and incubated at 60° C. for 18 hours. Each sample was then centrifuged (5-minutes at 13,000 RPMs) to remove any particulates. 100 or 200 μL of supernatant were transferred to a 96 well microtiter plate and the absorbance read at 490 nm. Total melanin content was calculated from a standard curve using synthetic melanin (Sigma Cat# M8631). Data was analyzed for significance using the t-test in Microsoft Excel to generate p-values (p-values less than 0.01 represent 99% confidence, p values of 0.05 represent 95% confidence both of which are statistically significant).

Consider `CN(C)CCN(Cc1ccccc1)CC1CCCCC1` [Compound 3a, N-benzyl-N-(cyclohexylmethyl)-N′,N′-dimethylethane-1,2-diamine], for which the inhibition at 10 µM worked out at 51.3% and the “melanogenesis inhibition (in words)” value is reported as “effective at melanogenesis inhibition”.

Turning to `CN(C)CCN(Cc1ccccc1)Cc1ccccc1` [Compound 3b, N,N-dibenzyl-N′,N′-dimethylethane-1,2-diamine], the inhibition at 10 µM worked out at 39.5% and the “melanogenesis inhibition (in words)” value is reported as “effective at melanogenesis inhibition”. With `CN(C)CCN(CCc1ccccc1)Cc1ccccc1` [Compound 3c, N-benzyl-N′,N′-dimethyl-N-(2-phenylethyl)ethane-1,2-diamine], the inhibition at 10 µM was 51.8%. Same read-out and setting: then `CN(C)CCN(Cc1ccccc1)Cc1ccc2ccccc2c1` [Compound 3d, N-benzyl-N′,N′-dimethyl-N-(naphthalen-2-ylmethyl)ethane-1,2-diamine], with 56%; and `Cc1ccccc1CN(CCN(C)C)Cc1ccccc1` [Compound 3e, N-benzyl-N′,N′-dimethyl-N-(2-methylbenzyl)ethane-1,2-diamine], with 46.6%; and `Cc1cccc(CN(CCN(C)C)Cc2ccccc2)c1` [Compound 3f, N-benzyl-N′,N′-dimethyl-N-(3-methylbenzyl)ethane-1,2-diamine], with 51.6%. `Cc1ccc(CN(CCN(C)C)Cc2ccccc2)cc1` [Compound 3g, N-benzyl-N′,N′-dimethyl-N-(4-methylbenzyl)ethane-1,2-diamine]: the inhibition at 10 µM worked out at 53.2%. On the same count and under the same terms, the value for `COc1ccc(CN(CCN(C)C)Cc2ccccc2)cc1` [Compound 3h, N-benzyl-N-(4-methoxybenzyl)-N′,N′-dimethylethane-1,2-diamine] was 48.8%; that for `CN(C)CCN(Cc1ccccc1)Cc1ccc(F)cc1` [Compound 3i, N-benzyl-N-(4-fluorobenzyl)-N′,N′-dimethylethane-1,2-diamine] was 47.8%. For `CCN(CCN(C)C)Cc1ccccc1` [Compound 3j, N-benzyl-N-ethyl-N′,N′-dimethylethane-1,2-diamine], the inhibition at 10 µM was -0.1% and the “melanogenesis inhibition (in words)” value is reported as “is not”. Regarding `CN(C)CCN(CC1CCCCC1)CC1CCCCC1` [Compound 5a, N,N-bis(cyclohexylmethyl)-N′,N′-dimethylethane-1,2-diamine], the inhibition at 10 µM came out at 42.5%.

Consider `COc1ccc(CN(CCN(C)C)Cc2ccc(OC)cc2)cc1` [Compound 5b, N,N-bis(4-methoxybenzyl)-N′,N′-dimethylethane-1,2-diamine], for which the inhibition at 10 µM came to 48.7%. On to `CN(C)CCN(Cc1ccc(F)cc1)Cc1ccc(F)cc1` [Compound 5c, N,N-bis(4-fluorobenzyl)-N′,N′-dimethylethane-1,2-diamine], for which the inhibition at 10 µM was found to be 49.3%. `CCN(CC)CCN(Cc1ccccc1)Cc1ccccc1` [Compound 5d, N,N-dibenzyl-N′,N′-diethylethane-1,2-diamine]: the inhibition at 10 µM worked out at 45.6%. On to `c1ccc(CN(CCN2CCCC2)Cc2ccccc2)cc1` [Compound 5e, N,N-dibenzyl-2-(pyrrolidin-1-yl)ethanamine], for which the inhibition at 10 µM is 40.6%. Regarding `CN(C)CCCN(Cc1ccccc1)Cc1ccccc1` [Compound 5f, N,N-dibenzyl-N′,N′-dimethylpropane-1,3-diamine], the inhibition at 10 µM was 50%.

On to `CN(C)CCN(Cc1ccccc1)C(=O)c1ccccc1` [Compound 7, N-benzyl-N-[2-(dimethylamino)ethyl]benzamide], for which the inhibition at 10 µM came to 4.4% and the “melanogenesis inhibition (in words)” value is “is not”. As to `CC(c1ccccc1)N(CCN(C)C)Cc1ccccc1` (stereo not shown) [Compound 11, N-benzyl-N′,N′-dimethyl-N-(1-phenylethyl)ethane-1,2-diamine], the inhibition at 10 µM worked out at 47.8%.
